Measured values: ChEMBL document CHEMBL3297694, “Naturally occurring polyphenolic inhibitors of amyloid beta aggregation” (Bioorg Med Chem Lett, 2014)
Active and inactive are the calls of the source. No cut-off for these calls is given here.

Tests used:
[1] = target: T1, Amyloid-beta precursor protein (Homo sapiens, UniProt P05067); assay: Inhibition of amyloid beta1-42 (unknown origin) aggregation assessed as reduction in amyloid fibril formation at 40 uM after 5 days by Transmission electron microscopy
[2] = target: T1, Amyloid-beta precursor protein; assay: Inhibition of amyloid beta1-42 (unknown origin) aggregation assessed as amyloid fibril formation tested at 1:1 compound to peptide ratio after 17 hrs by thioflavin T fluorescence method; set-up: scale not given: the % may be the effect or the level left
[3] = target: T1, Amyloid-beta precursor protein; assay: Inhibition of amyloid beta1-42 (unknown origin) aggregation assessed as amyloid fibril formation tested after 17 hrs by thioflavin T fluorescence method
[4] = target: T1, Amyloid-beta precursor protein; assay: Inhibition of amyloid beta1-40 (unknown origin) aggregation
[5] = target: T1, Amyloid-beta precursor protein; assay: Inhibition of amyloid beta1-42 (unknown origin) aggregation assessed as reduction in large aggregates at 100 uM after 20 mins and 24 hrs by dynamic light scattering method
[6] = target: T1, Amyloid-beta precursor protein; assay: Inhibition of amyloid beta1-42 (unknown origin) aggregation assessed as reduction in large aggregates at 400 uM after 20 mins and 2 hrs by size exclusion chromatography test

T1 sequence (P05067 whole entry): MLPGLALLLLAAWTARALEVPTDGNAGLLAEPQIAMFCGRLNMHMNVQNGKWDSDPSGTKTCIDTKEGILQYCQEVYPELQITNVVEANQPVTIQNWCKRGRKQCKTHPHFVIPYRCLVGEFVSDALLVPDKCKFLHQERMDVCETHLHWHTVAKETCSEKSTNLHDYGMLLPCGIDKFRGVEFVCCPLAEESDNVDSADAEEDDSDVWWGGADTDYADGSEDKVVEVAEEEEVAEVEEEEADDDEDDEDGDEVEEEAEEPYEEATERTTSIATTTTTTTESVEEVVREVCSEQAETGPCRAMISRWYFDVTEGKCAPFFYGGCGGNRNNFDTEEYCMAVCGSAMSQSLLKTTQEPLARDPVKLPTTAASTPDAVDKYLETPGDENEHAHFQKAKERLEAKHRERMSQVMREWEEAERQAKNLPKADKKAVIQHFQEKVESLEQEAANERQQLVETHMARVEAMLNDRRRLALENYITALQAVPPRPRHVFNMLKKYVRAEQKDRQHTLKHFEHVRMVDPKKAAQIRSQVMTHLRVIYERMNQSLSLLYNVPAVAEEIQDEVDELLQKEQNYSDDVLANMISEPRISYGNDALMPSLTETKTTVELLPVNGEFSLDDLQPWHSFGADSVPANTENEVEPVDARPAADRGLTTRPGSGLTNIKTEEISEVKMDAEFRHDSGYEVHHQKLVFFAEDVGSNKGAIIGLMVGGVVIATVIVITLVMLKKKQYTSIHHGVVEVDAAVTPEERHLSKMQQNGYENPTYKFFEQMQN

Compound | inhibition of amyloid fibril formation (active/inactive) [1] | Activity [2] | IC50 [3] | IC50 [4] | inhibition [5] | Activity [6]
O=c1cc(-c2ccc(O)c(O)c2)oc2cc(O)cc(O)c12 [LUTEOLIN] | Active | 14.4% | 6.4 µM | – | – | –
O=C(O[C@@H]1Cc2c(O)cc(O)cc2O[C@@H]1c1cc(O)c(O)c(O)c1)c1cc(O)c(O)c(O)c1 [EPIGALOCATECHIN GALLATE] | Active | 16% | 4.6 µM | 3 µM | – | –
O=C1/C(=C/c2ccc(O)c(O)c2)Oc2c1ccc(O)c2O | Active | 18.5% | 2.7 µM | – | – | –
COc1c(-c2ccc(O)c(O)c2)oc2c(O)c(O)ccc2c1=O | Active | 21% | 5.4 µM | – | Active | Active
